Data reported in US9688662B2, “N-(2,3-dihydro-1H-pyrrolo[2,3-b]pyridin-5-yl)-4-quinazolinamine and N-(2,3-dihydro-1H-indol-5-yl)-4-quinazolinamine derivatives as perk inhibitors” (Janssen Pharmaceutica NV, priority 2013, dated 2017).

Tests used:
PERK [1] = target: T1, PERK (Homo sapiens, UniProt Q9NZJ5); assay: Cell-based PERK inhibition assay (TR-FRET, phosphorylation of GFP-eIF2 alpha in HEK293 cells, tunicamycin)
T1 sequence (Q9NZJ5 30-1116): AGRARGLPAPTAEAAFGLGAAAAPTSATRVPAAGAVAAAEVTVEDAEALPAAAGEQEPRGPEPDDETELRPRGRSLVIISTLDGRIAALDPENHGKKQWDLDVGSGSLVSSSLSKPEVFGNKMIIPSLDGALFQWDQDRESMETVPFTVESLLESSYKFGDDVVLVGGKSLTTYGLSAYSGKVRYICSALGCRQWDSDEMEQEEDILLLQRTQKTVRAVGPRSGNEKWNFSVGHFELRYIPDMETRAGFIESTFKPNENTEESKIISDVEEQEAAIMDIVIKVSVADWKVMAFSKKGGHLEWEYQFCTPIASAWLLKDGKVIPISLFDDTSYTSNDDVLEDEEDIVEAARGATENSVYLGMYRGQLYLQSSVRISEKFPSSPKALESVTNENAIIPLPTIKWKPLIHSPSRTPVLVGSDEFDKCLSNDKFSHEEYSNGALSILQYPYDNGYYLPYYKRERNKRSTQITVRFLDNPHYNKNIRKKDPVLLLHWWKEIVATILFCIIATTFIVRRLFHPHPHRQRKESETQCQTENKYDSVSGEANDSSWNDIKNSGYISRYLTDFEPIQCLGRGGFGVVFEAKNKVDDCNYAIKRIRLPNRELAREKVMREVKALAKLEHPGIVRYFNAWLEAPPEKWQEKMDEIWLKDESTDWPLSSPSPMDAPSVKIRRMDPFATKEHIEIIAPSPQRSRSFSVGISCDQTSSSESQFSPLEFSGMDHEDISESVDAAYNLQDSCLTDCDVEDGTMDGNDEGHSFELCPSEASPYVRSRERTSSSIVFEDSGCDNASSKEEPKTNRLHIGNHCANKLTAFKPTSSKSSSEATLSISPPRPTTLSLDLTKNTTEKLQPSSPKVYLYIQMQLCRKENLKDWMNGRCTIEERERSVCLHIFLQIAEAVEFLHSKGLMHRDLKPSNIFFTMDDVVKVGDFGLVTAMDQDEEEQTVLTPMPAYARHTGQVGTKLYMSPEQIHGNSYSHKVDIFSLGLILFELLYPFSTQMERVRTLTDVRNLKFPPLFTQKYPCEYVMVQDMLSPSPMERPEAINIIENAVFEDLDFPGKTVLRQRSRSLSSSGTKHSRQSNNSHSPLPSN
Experimental: A cell-based TR-FRET assay to measure inhibition of phosphorylation of GFP-eIF2 alpha expressed in HEK293 cells by compounds was set up as follows:
LanthaScreen® eIF2α GripTite cells (Invitrogen M4387) were plated and incubated for 16-20 h at 37° C. and 5% CO2, incubated with test compounds for 60 min, and then stimulated with tunicamycin (2 microg/ml) for 120 min. Culture medium was aspirated from the wells and, the cells were lysed in LanthaScreen® Cellular Assay Lysis Buffer (Invitrogen; PV5598), supplemented with protease inhibitor cocktail (Sigma P8340, 1/1000 dilution) and phosphatase inhibitor cocktail (Sigma P0044, 1/1000 dilution), including 2 nM terbium-labeled eIF2a pSer52 antibody (Invitrogen; PV4816).

PERK [2] = target: T1, PERK; assay: In-vitro PERK enzyme inhibition assay (LanthaScreen, KIN_PERK); assay type: biochemical; parameters: GST (N); purchased Invitrogen PV5106; details: recombinant GST-PERK, GFP-eIF2 alpha substrate, 5 μM ATP, 60 minutes; for IC50: read-out: KIN_PERK pIC50 (converted)
Experimental: Pharmacology i) In-Vitro PERK Enzyme Inhibition Assay (KIN_PERK pIC50)
The compounds of the invention were tested for inhibitory activity against PERK in an enzyme inhibition assay.
A biochemical PERK kinase assay using LanthaScreen® technology from Invitrogen using recombinant GST-PERK (Invitrogen PV5106), GFP-eIF2 alpha (full length) as substrate (Invitrogen PV4809) and the Terbium-labeled antibody (Tb-anti-peIF2alpha (pSer52); Invitrogen PV4816) as detection reagent, was performed essentially as described by the manufacturer, using following specific parameters: […]

[3] = HEK293 (LanthaScreen eIF2α GripTite) cells, compounds 60 min, tunicamycin 2 microg/ml 120 min, read-out: P-eIF2alpha_Lantha_cell pIC50 (converted)
[4] = HEK293 (LanthaScreen eIF2α GripTite) cells, compounds 60 min, tunicamycin 2 microg/ml 120 min

Compound | IC50 (PERK [2]) | IC50 (PERK [1]; [3]) | other results
COc1cc2ncnc(Nc3ccc4c(c3)CCN4C(=O)Cc3c(C)[nH]c4ccc(F)cc34)c2cc1OC [Compound 2] | 0.631 nM | – | IC50 (PERK [1]): 25.1 nM
COc1cc2ncnc(Nc3ccc4c(c3F)CCN4C(=O)Cc3cc(F)ccc3F)c2cc1OC [Compound 3] | 0.398 nM | 50.1 nM | melting point: 210 °C
COc1cc2ncnc(Nc3ccc4c(c3)CCN4C(=O)Cc3c(C)[nH]c4c(F)cccc34)c2cc1OC [Compound 4] | – | – | P-eIF2alpha_Lantha_cell pIC50 (PERK [1]; [4]): 7.4; KIN_PERK pIC50 (PERK [2]): 8.8
COc1cc2ncnc(Nc3ccc4c(c3)CCN4C(=O)Cc3c(C)n(C)c4ccccc34)c2cc1OC [Compound 5] | 1.26 nM | 63.1 nM | melting point: 168 °C
COc1ccc2[nH]c(C)c(CC(=O)N3CCc4cc(Nc5ncnc6cc(OC)c(OC)cc56)ccc43)c2c1 [Compound 6] | 1.58 nM | 79.4 nM | –
COc1cc2ncnc(Nc3ccc4c(c3)CCN4C(=O)Cn3c(C)cc4ccc(F)cc43)c2cc1OC [Compound 7] | – | – | P-eIF2alpha_Lantha_cell pIC50 (PERK [1]; [4]): 7.1; KIN_PERK pIC50 (PERK [2]): 8.5
COc1cc2ncnc(Nc3ccc4c(c3)CCN4C(=O)Cc3c(C)[nH]c4ccccc34)c2cc1OCCCN1CCOCC1 [Compound 8] | – | 158 nM | melting point: 216 °C
COc1cc2ncnc(Nc3ccc4c(c3)CCN4C(=O)Cn3nc(C)c4ccccc43)c2cc1OC [Compound 9] | 15.8 nM | 251 nM | –
Cc1[nH]c2ccccc2c1CC(=O)N1CCc2cc(Nc3ncnc4cc5c(cc34)OCO5)ccc21 [Compound 10] | 3.98 nM | 158 nM | –
COc1cc2ncnc(Nc3ccc4c(c3)CCN4C(=O)Cc3c(Br)cnn3C)c2cc1OC [Compound 11, 2-(4-bromo-2-methyl-pyrazol-3-yl)-1-[5-[(6,7-dimethoxyquinazolin-4-yl)amino]indolin-1-yl]ethanone] | 7.94 nM | 251 nM | melting point: 170 °C
COc1cc2ncnc(Nc3ccc4c(c3)CCN4C(=O)Cc3cn(C)c4ccccc34)c2cc1OC [Compound 12] | 5.01 nM | 200 nM | –
COc1cc2ncnc(Nc3ccc4c(c3)CCN4C(=O)Cn3ccc4ccc(F)cc43)c2cc1OC [Compound 13] | 3.98 nM | 200 nM | –
COCCOc1cc2ncnc(Nc3ccc4c(c3)CCN4C(=O)Cc3c(C)[nH]c4ccccc34)c2cc1OCCOC [Compound 14] | – | 398 nM | melting point: 186 °C
COc1cc2ncnc(Nc3ccc4c(c3)C(F)(F)CN4C(=O)Cc3cc(F)ccc3F)c2cc1OC [Compound 18] | 31.6 nM | 794 nM | –
COc1cc2ncnc(Nc3ccc4c(c3)CCN4C(=O)Cc3c(C)nc4ccccn34)c2cc1OC [Compound 19] | 12.6 nM | 1260 nM | –
COc1cc2ncnc(Nc3ccc4c(c3)CCN4C(=O)Cc3ccccc3)c2cc1OC [Compound 21] | 25.1 nM | 1260 nM | –
COc1cc2ncnc(Nc3ccc4c(c3)CCN4C(=O)Cc3ccsc3)c2cc1OC [Compound 22] | 63.1 nM | 2000 nM | –
COc1cc2ncnc(Nc3ccc4c(c3)CCN4C(=O)Cc3n[nH]c4ccc(F)cc34)c2cc1OC [Compound 23] | 31.6 nM | 2000 nM | –
COc1cc2ncnc(Nc3ccc4c(c3)CCN4C(=O)Cn3ncc4ccccc43)c2cc1OC [Compound 24] | 79.4 nM | 3160 nM | –
COc1cc2ncnc(Nc3ccc4c(c3)CCN4C(=O)COc3ccccc3C(C)=O)c2cc1OC [Compound 25] | 79.4 nM | 3160 nM | –
COc1cc2ncnc(Nc3ccc4c(c3)CCN4C(=O)Cc3n[nH]c4ccccc34)c2cc1OC [Compound 26] | 63.1 nM | 3160 nM | –

Compound | IC50 (PERK [2]) | IC50 (PERK [1]; [3]) | other results
COc1cc2ncnc(Nc3ccc4c(c3)CCN4C(=O)Cc3c[nH]c4ncccc34)c2cc1OC [Compound 27] | 63.1 nM | 3980 nM | –
COc1cc2ncnc(Nc3ccc4c(c3)CCN4C(=O)Cn3c(=O)n(C)c4ccccc43)c2cc1OC [Compound 29] | 50.1 nM | > 30200 nM | –
COc1cc2ncnc(Nc3ccc4c(c3)CCN4C(=O)Cn3cnc4ccccc43)c2cc1OC [Compound 31] | 63.1 nM | > 30200 nM | –
COc1cc2ncnc(Nc3ccc4c(c3)CCN4C(=O)Cc3cc4ccccc4[nH]3)c2cc1OC [Compound 32] | 398 nM | > 30200 nM | –
COc1cc2ncnc(Nc3ccc4c(c3)CCN4C(=O)Cc3c(-c4ccccc4)[nH]c4ccccc34)c2cc1OC [Compound 33] | 6310 nM | – | –
COc1cc2ncnc(Nc3ccc4c(c3)CCN4C(=O)CN3Cc4ccccc4C3=O)c2cc1OC [Compound 34] | 1580 nM | – | –
O=C(Cc1cc(F)ccc1F)N1CCc2cc(Nc3ncnc4cc5c(cc34)OCO5)ccc21 [Compound 35] | > 10000 nM | – | –
COc1cc2ncnc(Nc3ccc4c(c3)CCN4C(=O)CN3C(=O)c4ccccc4C3=O)c2cc1OC [Compound 36] | 3160 nM | – | melting point: 190 °C
COc1cc2ncnc(Nc3ccc4c(c3)CCN4C(=O)Cc3cn(C(C)C)c4ccccc34)c2cc1OC [Compound 37] | 1580 nM | – | –
COc1cc2ncnc(Nc3cnc4c(c3)CCN4C(=O)Cc3cc(F)cc(C(F)(F)F)c3)c2cc1OC [Compound 38] | 3160 nM | – | –
COc1cc2ncnc(Nc3ccc4c(c3)CCN4C(=O)Cc3cccc(C)n3)c2cc1OC [Compound 41] | – | 794 nM | melting point: 248 °C
COc1cc2ncnc(Nc3ccc4c(c3)CCN4C(=O)Cc3cc(F)cc(C(F)(F)F)c3)c2cc1OC [Compound 43] | 2 nM | 1580 nM | –
COc1ccc2ncnc(Nc3ccc4c(c3)CCN4C(=O)Cc3cc(F)cc(C(F)(F)F)c3)c2c1 [Compound 44] | ~21.4 nM | > 30200 nM | –
COc1ccc2c(Nc3ccc4c(c3)CCN4C(=O)Cc3cc(F)cc(C(F)(F)F)c3)ncnc2c1 [Compound 45] | 39.8 nM | > 30200 nM | –
COc1cc2ncnc(Nc3ccc4c(c3)CCN4C(=O)Cc3c(-c4cccs4)cnn3C)c2cc1OC [Compound 46, 1-[5-[(6,7-dimethoxyquinazolin-4-yl)amino]indolin-1-yl]-2-[2-methyl-4-(2-thienyl)pyrazol-3-yl]ethanone] | 398 nM | ~11500 nM | –
COc1cc2ncnc(Nc3ccc4c(c3)CCN4C(=O)Cc3ccnn3C)c2cc1OC [Compound 47, 1-[5-[(6,7-dimethoxyquinazolin-4-yl)amino]indolin-1-yl]-2-(2-methylpyrazol-3-yl)ethanone] | 63.1 nM | 6310 nM | –
COc1cc2ncnc(Nc3ccc4c(c3)CCN4C(=O)Cc3c(-c4ccccc4)cnn3C)c2cc1OC [Compound 48] | 251 nM | 1260 nM | –
COc1cc2ncnc(Nc3ccc4c(c3)CCN4C(=O)Cc3c(-c4ccoc4)cnn3C)c2cc1OC [Compound 49] | 50.1 nM | 3160 nM | –
COc1cc2ncnc(Nc3ccc4c(c3)CCN4C(=O)Cc3c(-c4cnoc4)cnn3C)c2cc1OC [Compound 50] | 79.4 nM | 3160 nM | –
COc1cc2ncnc(Nc3ccc4c(c3)CCN4C(=O)Cc3c(-c4ccsc4)cnn3C)c2cc1OC [Compound 51] | 251 nM | 31600 nM | –
COc1cc2ncnc(Nc3ccc4c(c3)CCN4C(=O)Cc3c(-c4cnn(C)c4)cnn3C)c2cc1OC [Compound 52] | 631 nM | > 30200 nM | –
